Laboratory results published in patent US9487479B2, “Small molecule inhibitors of N-terminus activation of the androgen receptor” (The University of British Columbia, priority 2008, dated 2016).

Tests used:
androgen receptor (AR) = molecular target: T1, androgen receptor (AR) (Homo sapiens, UniProt P10275, T878A); experiment: PSA (6.1 kb)-luciferase reporter assay in LNCaP cells; assay type: cell-based; settings: R1881 1 nM, 24 hours; for inhibition of R1881 induction of PSA (6.1)-luciferase: 1 hour pretreatment
T1 construct: endogenous in cells; host or cells: LNCaP human prostate cancer cells
T1 sequence (P10275 1-920 T878A): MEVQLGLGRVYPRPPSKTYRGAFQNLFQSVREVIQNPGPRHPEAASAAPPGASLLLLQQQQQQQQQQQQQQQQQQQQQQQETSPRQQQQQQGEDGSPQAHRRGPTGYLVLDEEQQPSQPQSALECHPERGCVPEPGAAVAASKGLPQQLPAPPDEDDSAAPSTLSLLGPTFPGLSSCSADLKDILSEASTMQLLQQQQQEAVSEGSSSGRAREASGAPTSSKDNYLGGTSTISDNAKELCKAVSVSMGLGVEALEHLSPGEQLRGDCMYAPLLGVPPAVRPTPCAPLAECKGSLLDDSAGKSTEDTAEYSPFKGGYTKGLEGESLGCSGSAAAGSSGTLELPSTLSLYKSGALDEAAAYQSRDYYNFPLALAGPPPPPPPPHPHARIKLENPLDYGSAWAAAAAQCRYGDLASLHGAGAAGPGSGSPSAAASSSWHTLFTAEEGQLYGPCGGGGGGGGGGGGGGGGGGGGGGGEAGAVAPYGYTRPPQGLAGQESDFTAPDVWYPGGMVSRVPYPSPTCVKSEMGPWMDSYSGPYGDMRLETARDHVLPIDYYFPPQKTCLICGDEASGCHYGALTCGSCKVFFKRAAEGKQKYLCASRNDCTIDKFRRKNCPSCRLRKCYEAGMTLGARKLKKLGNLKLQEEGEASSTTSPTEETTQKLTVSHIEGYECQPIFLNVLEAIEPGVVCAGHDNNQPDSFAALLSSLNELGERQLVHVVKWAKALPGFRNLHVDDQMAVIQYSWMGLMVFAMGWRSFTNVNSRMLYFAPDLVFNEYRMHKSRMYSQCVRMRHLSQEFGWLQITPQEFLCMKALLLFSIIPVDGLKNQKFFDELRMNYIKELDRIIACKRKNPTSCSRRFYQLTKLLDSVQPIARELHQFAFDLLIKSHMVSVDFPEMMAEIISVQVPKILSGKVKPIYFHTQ
Experimental: White bars represent no steroid (ethanol control). Wherein glucocorticoid receptor (GR) and progesterone receptor (PR).
The cells were harvested 24 hours later and analyzed for luciferase activity. The data is normalized to protein that was measured using Bradford assay.
Sequence similarities of amino acids in the AR with related human steroid receptors (glucocorticoid receptor (GR) and progesterone receptor (PR)) are significant in some domains such as the DNA-binding-domain (DBD). Although the AR-NTD shares less than 15% homology with the PR and GR, these receptors do interact with some of the same proteins such as SRC-1 (steroid receptor coactivator-1). […] Cells were co-transfected with expression plasmids for full-length hGR and PRβ and the relative reporter (i.e., pGR-Luc or PRE-E1b-Luc reporters). Cells were then treated with ethanol vehicle, dexamethasone (GR), 4-pregnene-3,20 dione (progesterone) (PR) followed by measurement of luciferase activity.
Activation of the endogenous AR was measured in LNCaP human prostate cancer cells by measuring an androgen-responsive reporter containing androgen response elements (AREs). The PSA (6.1 kb)-luciferase reporter gene construct contains several well-characterized AREs and is induced by androgen.

PSA mRNA = experiment: Androgen-induced PSA mRNA levels in LNCaP cells (qRT-PCR); assay type: cell-based, human; settings: R1881 1 nM, 16 hours; for inhibition of androgen-induced levels of PSA mRNA: 10 μg/ml, 1 hour pretreatment
Experimental: Levels of PSA mRNA were measured by quantitative real-time (qRT)-PCR and normalized to levels of GAPDH mRNA (housekeeping gene). White bar: no R1881. Black bars: R1881 (1 nM). MNE: mean normalized expression. DMSO (no R1881) was arbitrarily set at 1.0 for each individual experiment. Bars represent the mean±SE from 3 separate experiments using triplicate technical samples from each experiment.
PSA is an androgen-regulated gene containing several well-characterized androgen response elements (AREs) in the enhancer and promoter regions. Levels of PSA mRNA are induced by androgen by a mechanism dependent androgen receptor. To test if sintokamides would also block endogenous gene expression induced by androgen, levels of PSA mRNA were measured in response to the synthetic androgen R1881.

LNCaP cells = experiment: Androgen-dependent proliferation of LNCaP cells (BrdU incorporation); assay type: cell-based, human; settings: R1881 0.1 nM, 3 days
Experimental: BrdU incorporation was measured 3 days later to indicate changes in proliferation in response to androgen (see FIG. 3B).

Compound	inhibition of R1881 induction of PSA (6.1)-luciferase (androgen receptor (AR); 5 μg/ml)	inhibition of androgen-induced levels of PSA mRNA (PSA mRNA)	also measured
CCC(=O)N[C@H](C[C@H](C)C(Cl)Cl)C(=O)N1C(=O)C=C(OC)[C@@H]1C[C@H](C)C(Cl)Cl [CB1.1, Sintokamide C]	inhibition	–	–
CCC(=O)N[C@H](C[C@H](C)C(Cl)(Cl)Cl)C(=O)N1C(=O)C=C(OC)[C@@H]1CC(C)C [CB2.1, Sintokamide E]	inhibition	–	–
CCC(=O)N[C@H](C[C@H](C)C(Cl)(Cl)Cl)C(=O)N1C(=O)C=C(OC)[C@@H]1C[C@H](C)C(Cl)(Cl)Cl [CB4.0, Sintokamide B]	inhibition	inhibit	–
C[C@]1(O)CC[C@H]2[C@@H]3CCC4=CC(=O)CCC4=C3C=C[C@@]21C [Sintokamide R1881, R1881, reference compound]	–	–	proliferation over control (BrdU incorporation) (LNCaP cells): increased proliferation over control; induction of PSA-luciferase activity (androgen receptor (AR)): approximately 6 fold; induction of levels of PSA mRNA (PSA mRNA): at least 3 fold
CCC(=O)N[C@H](CC(C)C)C(=O)N1C(=O)C=C(OC)[C@@H]1CC(C)C [non-chlorinated sintokamide, N—((R)-1-((S)-2-isobutyl-3-methoxy-5-oxo-2,5-dihydro-1H-pyrrol-1-yl)-4-methyl-1-oxopentan-2-yl)propionamide]	–	–	inhibition of R1881 induction of PSA (6.1)-luciferase (androgen receptor (AR); 10 μM): some activity
Dysamide A [CB3.0]	some activity	inhibit	inhibition of R1881 induction of PSA (6.1)-luciferase (androgen receptor (AR); 5 μg/ml, listed as Dysimide A): inhibition
